Earlier results, collected in patent US20210154335A1, “DYE AGGREGATES-CONTAINING NANOPARTICLES AND USES THEREOF” (BOARD OF REGENTS, THE UNIVERSITY OF TEXAS SYSTEM, priority 2019, published 2021).

Conditions: in vivo

CC1(C)C(/C=C/C=C/C=C/C=C2\N(CCCCS(=O)(=O)O)c3ccc4ccccc4c3C2(C)C)=[N+](CCCCS(=O)(=O)[O-])c2ccc3ccccc3c21 [ICG, indocyanine green]
blood circulation half-life: 2 to 4 min
